The target of one experiment is T1, PD-1-Ig/PD-L1-His (Homo sapiens, UniProt Q9NZQ7).
T1 construct: hPDL1(19-239)-TVMV-His; TVMV protease cleavage site (C); made in house; host or cells: HEK293T
Kind of experiment: PD-1/PD-L1 Homogenous Time-Resolved Fluorescence (HTRF) binding assay. The source says:
The ability of the macrocyclic peptides of the present disclosure to bind to PD-L1 was investigated using a PD-1/PD-L1 Homogenous Time-Resolved Fluorescence (HTRF) binding assay.
Homogenous Time-Resolved Fluorescence (HTRF) Assays of Binding of Soluble PD-1 to Soluble PD-L1. Soluble PD-1 and soluble PD-L1 refers to proteins with carboxyl-end truncations that remove the transmembrane-spanning regions and are fused to heterologous sequences, specifically the Fc portion of the human immunoglobulin G sequence (Ig) or the hexahistidine epitope tag (His). All binding studies were performed in an HTRF assay buffer consisting of dPBS supplemented with 0.1% (w/v) bovine serum albumin and 0.05% (v/v) Tween-20. For the PD-1-Ig/PD-L1-His binding assay, inhibitors were pre-incubated with PD-L1-His (10 nM final) for 15 m in 4 μl of assay buffer, followed by addition of PD-1-Ig (20 nM final) in 1 μl of assay buffer and further incubation for 15 m. PD-L1 fusion proteins from either human, cynomologous macaques, mouse, or other species were used. HTRF detection was achieved using europium crypate-labeled anti-Ig monoclonal antibody (1 nM final) and allophycocyanin (APC) labeled anti-His monoclonal antibody (20 nM final). Antibodies were diluted in HTRF detection buffer and 5 μl was dispensed on top of binding reaction. The reaction was allowed to equilibrate for 30 minutes and signal (665 nm/620 nm ratio) was obtained using an EnVision fluorometer. Additional binding assays were established between PD-1-Ig/PD-L2-His (20 and 5 nM, respectively), CD80-His/PD-L1-Ig (100 and 10 nM, respectively) and CD80-His/CTLA4-Ig (10 and 5 nM, respectively).
Recombinant Proteins. Carboxyl-truncated human PD-1 (amino acids 25-167) with a C-terminal human Ig epitope tag [hPD-1 (25-167)-3S-IG] and human PD-L1 (amino acids 18-239) with a C-terminal His epitope tag [hPD-L1(19-239)-tobacco vein mottling virus protease cleavage site (TVMV)-His] were expressed in HEK293T cells and purified sequentially by recombinant Protein A affinity chromatography and size exclusion chromatography. Human PD-L2-His (Sino Biologicals), CD80-His (Sino Biologicals), CTLA4-Ig (RnD Systems) were all obtained through commercial sources.
In general terms: TR-FRET usually uses a lanthanide donor and a delayed reading to cut background.

Experiment [1] concerns the target T2, 293T-hPD-L1 cells (binding of PE-labeled PD-1-Ig to human PD-L1) (Homo sapiens, UniProt Q9NZQ7).
T2 construct: expressed in transfected cells
The experiment in a line: 293T-hPD-L1 Cell Binding High-Content Screening Assay (CBA). The format is cell-based. Particulars: 293T cells over-expressing human PD-L1, PE-labeled PD-1-Ig 0.5 nM, 10% fetal calf serum; read-out: 293T-hPD-L1_PD-1 IC50. On the procedure: 293T-hPD-L1 Cell Binding High-Content Screening Assay (CBA). Phycoerythrin (PE) was covalently linked to the Ig epitope tag of human PD-1-Ig and fluorescently-labeled PD-1-Ig was used for binding studies with a human embryonic kidney cell line (293T) stably over-expressing human PD-L1 (293T-hPD-L1). Briefly, 2×10^3 293T-hPD-L1 cells were seeded into 384 well plates in 20 μl of DMEM supplemented with 10% fetal calf serum and cultured overnight. 125 nl of compound was added to cells followed by 5 μl of PE-labeled PD-1-Ig (0.5 nM final), diluted in DMEM supplemented with 10% fetal calf serum, followed by incubation at 37° C. for Ih. Cells were washed 3× in 100 μl dPBS followed by fixation with 30 μl of 4% paraformaldehyde in dPBS containing 10 μg/ml Hoechst 33342 for 30 min at room temperature. Cells were washed 3× in 100 μl of dPBS followed by final addition of 15 μl of dPBS. Data was collected and processed using a Cell Insight NXT High Content Imager and associated software.

Experiment [2] has as its target Recombinant Human PD-L1-TVMV-His, hPDL1(19-239)-TVMV-His (human) (UniProt Q9NZQ7). The experiment in a line: HTRF competition, inhibits PD-1-Ig binding to PD-L1-His.
[3] abbreviates: soluble hPD-1-Ig / hPD-L1-His, HTRF, read-out: LE HTRF hPD1 hPDL1 IC50.

Where two headings read alike, the source gives them in different places. Starred links: 1 amine or outer side, 2 acyl side, 3 side chain; linkers in the order of their positions; H or OH if unused. Positions of bridges follow the written chain, without caps; N, C: chain ends. Non-standard residues stand in square brackets, D forms with d. Groups on a side chain read outwards from the residue. Primed or numbered codes have the meaning given here. *: point of attachment. Trp(1-CH2CO) = O=C([C@H](Cc1cn(CC(=O)[*:3])c2ccccc12)N[*:1])[*:2]; Pra′ = C-terminal residue bearing an alkyne, joined as triazole; Hexadecanoyl(16-SO3H) = O=C(CCCCCCCCCCCCCCCS(=O)(=O)O)*; γGlu = O=C(O)[C@H](CCC(=O)[*:2])N[*:1]; Hyp = O=C(O)[C@@H]1C[C@@H](O)CN1; NMeNle = CCCC[C@H](NC)C(=O)O; PEG11′ = not defined here; NMeA = CN[C@@H](C)C(=O)O; Dab = NCC[C@H](N)C(=O)O; Dap = NC[C@H](N)C(=O)O

T2 sequence (Q9NZQ7 19-290): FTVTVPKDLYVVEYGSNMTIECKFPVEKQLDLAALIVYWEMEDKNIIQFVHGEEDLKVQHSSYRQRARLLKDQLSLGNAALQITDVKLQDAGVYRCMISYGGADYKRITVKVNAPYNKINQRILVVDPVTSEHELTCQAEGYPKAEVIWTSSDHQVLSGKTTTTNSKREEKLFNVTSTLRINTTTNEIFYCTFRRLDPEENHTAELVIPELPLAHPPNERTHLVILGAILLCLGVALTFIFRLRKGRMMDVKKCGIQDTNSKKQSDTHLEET
Recombinant Human PD-L1-TVMV-His, hPDL1(19-239)-TVMV-His (human), sequence (Q9NZQ7 other isoform, or with tags, fused parts or gaps limits assumed): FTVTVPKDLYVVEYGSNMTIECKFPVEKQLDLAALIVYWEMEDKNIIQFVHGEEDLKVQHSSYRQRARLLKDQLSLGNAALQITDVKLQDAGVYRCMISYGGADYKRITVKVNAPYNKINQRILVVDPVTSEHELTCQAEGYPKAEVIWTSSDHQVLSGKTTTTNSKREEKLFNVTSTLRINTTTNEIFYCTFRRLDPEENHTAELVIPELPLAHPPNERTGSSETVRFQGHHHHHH

In the case of `CCCC[C@H]1C(=O)N(C)[C@@H](CCCC)C(=O)N[C@@H](CC(C)C)C(=O)N[C@H](C(=O)N[C@@H](C)C(=O)N[C@@H](Cc2cn(CCOCCOCCOCCOCCOCCOCCOCCOCCOCCOCCOCCNC(=O)CC[C@H](NC(=O)CCCCCCCCCCCCCCCS(=O)(=O)O)C(=O)O)nn2)C(=O)O)CSCC(=O)N[C@@H](Cc2ccc(O)cc2)C(=O)N(C)[C@@H](C)C(=O)N[C@@H](CC(N)=O)C(=O)N2CCC[C@H]2C(=O)N[C@@H](CN)C(=O)N[C@@H](CC(C)C)C(=O)N2C[C@H](O)C[C@H]2C(=O)N[C@@H](Cc2c[nH]c3ccccc23)C(=O)N[C@@H](CCN)C(=O)N[C@@H](Cc2cn(CC(=O)O)c3ccccc23)C(=O)N1C` [Example 1002], the IC50 came to 2 nM at PD-1-Ig/PD-L1-His (setting [3]) and 0.1 nM in experiment [1].
Turning to `CCCC[C@H]1C(=O)N(C)[C@@H](CCCC)C(=O)N[C@@H](CC(C)C)C(=O)N[C@H](C(=O)NCC(=O)N[C@@H](Cc2cn(CCOCCOCCOCCOCCOCCOCCOCCOCCOCCOCCOCCNC(=O)CC[C@H](NC(=O)CCCCCCCCCCCCCCCS(=O)(=O)O)C(=O)O)nn2)C(=O)O)CSCC(=O)N[C@@H](Cc2ccc(O)cc2)C(=O)N(C)[C@@H](C)C(=O)N[C@@H](CC(N)=O)C(=O)N2CCC[C@H]2C(=O)N[C@@H](CN)C(=O)N[C@@H](CC(C)C)C(=O)N2C[C@H](O)C[C@H]2C(=O)N[C@@H](Cc2c[nH]c3ccccc23)C(=O)N[C@@H](CCN)C(=O)N[C@@H](Cc2cn(CC(=O)O)c3ccccc23)C(=O)N1C` [Example 1008], the IC50 at PD-1-Ig/PD-L1-His (setting [3]) was 7.3 nM; in experiment [1], 1.2 nM.
Take `CCCC[C@H]1C(=O)N(C)[C@@H](CCCC)C(=O)N[C@@H](CC(C)C)C(=O)N[C@H](C(=O)NCC(=O)N[C@@H](Cc2cn(CCOCCOCCOCCNC(=O)CC[C@H](NC(=O)CCCCCCCCCCCS(=O)(=O)O)C(=O)O)nn2)C(=O)O)CSCC(=O)N[C@@H](Cc2ccc(O)cc2)C(=O)N(C)[C@@H](C)C(=O)N[C@@H](CC(N)=O)C(=O)N2CCC[C@H]2C(=O)N[C@@H](CN)C(=O)N[C@@H](CC(C)C)C(=O)N2C[C@H](O)C[C@H]2C(=O)N[C@@H](Cc2c[nH]c3ccccc23)C(=O)N[C@@H](CCN)C(=O)N[C@@H](Cc2cn(CC(=O)O)c3ccccc23)C(=O)N1C` [Example 1010]: in experiment [1], the IC50 came to 0.13 nM.
The same measure, in the same setting: in the case of `CCCC[C@H]1C(=O)N(C)[C@@H](CCCC)C(=O)N[C@@H](CC(C)C)C(=O)N[C@H](C(=O)NCC(=O)N[C@@H](Cc2cn(CCOCCOCCNC(=O)[C@H](CCC(=O)O)NC(=O)CC[C@H](NC(=O)CCCCCCCCCCCCCCCS(=O)(=O)O)C(=O)O)nn2)C(=O)O)CSCC(=O)N[C@@H](Cc2ccc(O)cc2)C(=O)N(C)[C@@H](C)C(=O)N[C@@H](CC(N)=O)C(=O)N2CCC[C@H]2C(=O)N[C@@H](CN)C(=O)N[C@@H](CC(C)C)C(=O)N2C[C@H](O)C[C@H]2C(=O)N[C@@H](Cc2c[nH]c3ccccc23)C(=O)N[C@@H](CCN)C(=O)N[C@@H](Cc2cn(CC(=O)O)c3ccccc23)C(=O)N1C` [Example 1006] it was 61.8 nM.
Regarding `CCCC[C@H]1C(=O)N(C)[C@@H](CCCC)C(=O)N[C@@H](CC(C)C)C(=O)N[C@H](C(=O)NCC(=O)N[C@@H](Cc2cn(CCOCCOCCOCCOCCOCCOCCOCCOCCOCCOCCOCCNC(=O)CC[C@H](NC(=O)CCCCCCCCCCCCCCCP(=O)(O)O)C(=O)O)nn2)C(=O)O)CSCC(=O)N[C@@H](Cc2ccc(O)cc2)C(=O)N(C)[C@@H](C)C(=O)N[C@@H](CC(N)=O)C(=O)N2CCC[C@H]2C(=O)N[C@@H](CN)C(=O)N[C@@H](CC(C)C)C(=O)N2C[C@H](O)C[C@H]2C(=O)N[C@@H](Cc2c[nH]c3ccccc23)C(=O)N[C@@H](CCN)C(=O)N[C@@H](Cc2cn(CC(=O)O)c3ccccc23)C(=O)N1C` [Example 1007], the IC50 at PD-1-Ig/PD-L1-His was 14 nM.
Regarding `CCCC[C@H]1C(=O)N(C)[C@@H](CCCC)C(=O)N[C@@H](CC(C)C)C(=O)N[C@H](C(=O)N[C@@H](CCCN)C(=O)N[C@@H](Cc2cn(CCOCCOCCOCCOCCOCCOCCOCCOCCOCCOCCOCCNC(=O)CC[C@H](NC(=O)CCCCCCCCCCCCCCCS(=O)(=O)O)C(=O)O)nn2)C(=O)O)CSCC(=O)N[C@@H](Cc2ccc(O)cc2)C(=O)N(C)[C@@H](C)C(=O)N[C@@H](CC(N)=O)C(=O)N2CCC[C@H]2C(=O)N[C@@H](CN)C(=O)N[C@@H](CC(C)C)C(=O)N2C[C@H](O)C[C@H]2C(=O)N[C@@H](Cc2c[nH]c3ccccc23)C(=O)N[C@@H](CCN)C(=O)N[C@@H](Cc2cn(CC(=O)O)c3ccccc23)C(=O)N1C` [Example 1003], the 50% inhibitory concentration (IC50) at PD-1-Ig/PD-L1-His (setting [3]) came to 38.1 nM.

B1: Example 1001 (peptide)
peptide: {CH2CO}-Y[NMeA]NP[Dap]L[Hyp]W[Dab][Trp(1-CH2CO)][NMeNle][NMeNle]LC[Pra′]([PEG11′-γGlu-Hexadecanoyl(16-SO3H)])-OH
modifications: thioether N-14; also: Pra linked to Peg11 via triazole
Take B1: the IC50 in experiment [2] worked out at 0.6 nM.

Usually IC50 stands for the point on the concentration scale where inhibition reaches its midpoint.

These data come from patent US20240199701A1, “IMMUNOMODULATORS” (BRISTOL-MYERS SQUIBB COMPANY, priority 2021, published 2024).
